Tested on: male broiler chickens (Cobb-500)
Assay: In vivo broiler trial 1: growth performance under litter/density challenge
Protocol: The trial was performed at Poultrz section, INTA-EEA Pergamino, Buenos Aires, Argentina from Aug. 15, 2017 to Oct. 3, 2017. Day-old male broiler chickens (“Cobb-500”), were supplied by a commercial hatchery (Granja Tres Arroyos, Tres Arroyos 378, Buenos Aires, Argentina).
Birds were housed in a conventional barn (netting open sides with curtains) into floor pens with shaving wood as litter. Gas heaters, fans and foggers were used to control the barn temperature.
All birds were weighed, separated in categories of 1 g and distributed to form homogenous lots. Birds of extreme weights were excluded.
Feed and waer were providing ad-libitum.
The experimental diets (Starter, Growing, Finisher and last week) were based on corn, soybean meal as main ingredients (Table 3). Phytase (RONOZYME® HiPhos GT, dose 1000 FYT/kg of feed, 100 g/tn of feed) was used in all the treatments. Rovimix broilders from DSM was used as vitamin-mineral premix, and maduramycin as coccidiostat. The composition of the feed was listed as Table 4
Individual body weight and pen feed intake were determined weekly.
Based on this information feed conversion and weight gain were calculated considering each phase and the complete cycle.
The live weight/feed conversion ratio was used. This is a simplification to avoid the impact of mortality when a low number of birds per pen is used (18 in this experiment).
Uniformity (% of birds included in a range of weights of […] of the pen mean body weight) was determined in each pen at 48 days of age.

Question: With Enramycin as the substance, how does the “effect on feed conversion” value (Enramycin significant from day 35, muramidase at day 7 and from day 21) read?
Answer: Its value is “the feed conversion was improved”.

Question: And the “reduction of days to reach the slaughtering weight (2800 g)” value (effect of inclusion in feed (Enramycin 10 ppm; Muramidase 392 ppm))?
Answer: The value was 1.1 days.

Question: What about the “effect on body weight” value (significant from day 21) of the same substance?
Answer: Its value is “an increment in body weight was observed”.

— patent US20220031815A1, “ANIMAL FEED COMPOSITION AND USE THEREOF” (DSM IP ASSETS B.V., priority 2018, published 2022)
